Laboratory results from ChEMBL document CHEMBL1201862, “PubChem BioAssay data set” (2004).
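1) Cells in 96-well plates. 2) Compound, 48 h, 5 concentrations. 3) Linear interpolation between surrounding doses. 4) Unreached endpoint = highest concentration. GI50 = concentration required for 50% inhibition of growth.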 Active and inactive are the calls of the source. Cut-off read from the data, not from the text of the source: active = GI50 up to about 1.1 µM and inactive = higher.

Experiments:
Assay in all cases: growth of human tumour cells (NCI), 48 h
[1] = test system: 786-0
[2] = test system: A498
[3] = test system: A549
[4] = test system: ACHN
[5] = test system: BT-549
[6] = test system: CAKI-1
[7] = test system: CCRF-CEM
[8] = test system: COLO 205
[9] = test system: DU-145
[10] = test system: EKVX
[11] = test system: HCT-116
[12] = test system: HCT-15
[13] = test system: HL-60
[14] = test system: HOP-62
[15] = test system: HOP-92
[16] = test system: HT-29
[17] = test system: Hs-578T
[18] = test system: IGROV-1
[19] = test system: K562
[20] = test system: KM12
[21] = test system: LOX IMVI
[22] = test system: M14
[23] = test system: MDA-MB-231
[24] = test system: MDA-MB-435
[25] = test system: MDA-N
[26] = test system: MOLT-4
[27] = test system: Malme-3M
[28] = test system: NCI-H226
[29] = test system: NCI-H23
[30] = test system: NCI-H460
[31] = test system: NCI-H522
[32] = test system: NCI/ADR-RES
[33] = test system: OVCAR-3
[34] = test system: OVCAR-4
[35] = test system: OVCAR-5
[36] = test system: OVCAR-8
[37] = test system: PC-3
[38] = test system: RPMI-8226
[39] = test system: RXF 393
[40] = test system: SF-268
[41] = test system: SF-295
[42] = test system: SF-539
[43] = test system: SK-MEL-28
[44] = test system: SK-MEL-2
[45] = test system: SK-MEL-5
[46] = test system: SK-OV-3
[47] = test system: SN12C
[48] = test system: SNB-19
[49] = test system: SR
[50] = test system: SW-620
[51] = test system: T47D
[52] = test system: TK-10
[53] = test system: U-251
[54] = test system: UACC-257
[55] = test system: UACC-62
[56] = test system: UO-31
[57] = test system: HCC 2998
[58] = test system: MCF7
[59] = test system: SNB-75

c1ccc(-c2sc(-c3ccccc3)c3c2C2CCC3C2)cc1
GI50 [1]: 45.9 µM (inactive) | GI50 [2]: 53.3 µM (inactive) | GI50 [3]: 28.6 µM (inactive) | GI50 [4]: 36.1 µM (inactive) | GI50 [5]: 40.7 µM (inactive) | GI50 [6]: 49.9 µM (inactive) | GI50 [7]: 43.9 µM (inactive) | GI50 [8]: 22.9 µM (inactive) | GI50 [9]: > 100 µM (inactive) | GI50 [10]: 42.1 µM (inactive) | GI50 [11]: 27 µM (inactive) | GI50 [12]: 31.6 µM | GI50 [13]: 37.5 µM (inactive) | GI50 [14]: 38.2 µM (inactive) | GI50 [15]: 12.6 µM (inactive) | GI50 [16]: 18.6 µM (inactive) | GI50 [17]: 20 µM (inactive) | GI50 [18]: 47.1 µM (inactive) | GI50 [19]: 35.2 µM (inactive) | GI50 [20]: 30.6 µM (inactive) | GI50 [21]: 28.8 µM (inactive) | GI50 [22]: 35.3 µM (inactive) | GI50 [23]: 27.6 µM (inactive) | GI50 [24]: 38.6 µM (inactive) | GI50 [25]: 43 µM (inactive) | GI50 [26]: 52.4 µM (inactive) | GI50 [27]: 31.6 µM (inactive) | GI50 [28]: 32.5 µM (inactive) | GI50 [29]: 33.5 µM (inactive) | GI50 [30]: 28.9 µM (inactive) | GI50 [31]: 23.1 µM (inactive) | GI50 [32]: 29.8 µM (inactive) | GI50 [33]: 30.6 µM (inactive) | GI50 [34]: > 100 µM (inactive) | GI50 [35]: 53.8 µM (inactive) | GI50 [36]: 32.9 µM (inactive) | GI50 [37]: 25.5 µM (inactive) | GI50 [38]: 16.1 µM (inactive) | GI50 [39]: 24.3 µM (inactive) | GI50 [40]: 53.3 µM (inactive) | GI50 [41]: 35.1 µM (inactive) | GI50 [42]: 26 µM (inactive) | GI50 [43]: 49 µM (inactive) | GI50 [44]: 19.2 µM (inactive) | GI50 [45]: 20 µM (inactive) | GI50 [46]: 64 µM (inactive) | GI50 [47]: 45.3 µM (inactive) | GI50 [48]: > 100 µM (inactive) | GI50 [49]: 17.4 µM (inactive) | GI50 [50]: 43.3 µM (inactive) | GI50 [51]: 38.7 µM (inactive) | GI50 [52]: 27 µM (inactive) | GI50 [53]: 38.2 µM (inactive) | GI50 [54]: 40.3 µM (inactive) | GI50 [55]: 33.8 µM (inactive) | GI50 [56]: 16 µM (inactive)

CC(=O)Oc1cc2c(cc1OC(C)=O)[C@H]1CC[C@]3(C)[C@@H](OC(C)=O)CC[C@H]3[C@@H]1CC2
GI50 [1]: 4.78 µM (inactive) | GI50 [2]: 11.8 µM (inactive) | GI50 [3]: 7.96 µM (inactive) | GI50 [4]: 3.56 µM (inactive) | GI50 [5]: 1.99 µM (inactive) | GI50 [6]: 3.22 µM (inactive) | GI50 [8]: 3.43 µM (inactive) | GI50 [9]: 3.15 µM (inactive) | GI50 [10]: 2.56 µM (inactive) | GI50 [57]: 7.71 µM (inactive) | GI50 [12]: 1.48 µM | GI50 [15]: 1.1 µM (active) | GI50 [16]: 5.14 µM (inactive) | GI50 [17]: 1.87 µM (inactive) | GI50 [18]: 3.77 µM (inactive) | GI50 [19]: 2.23 µM (inactive) | GI50 [20]: 8.91 µM (inactive) | GI50 [21]: 2.92 µM (inactive) | GI50 [22]: 6 µM (inactive) | GI50 [58]: 6.37 µM (inactive) | GI50 [23]: 7.41 µM (inactive) | GI50 [25]: 0.773 µM (active) | GI50 [29]: 10.2 µM (inactive) | GI50 [30]: 8.57 µM (inactive) | GI50 [31]: 1.16 µM (inactive) | GI50 [32]: 9.53 µM (inactive) | GI50 [33]: 2.21 µM (inactive) | GI50 [34]: 5.61 µM (inactive) | GI50 [35]: 10.1 µM (inactive) | GI50 [36]: 6.7 µM (inactive) | GI50 [37]: 9.29 µM (inactive) | GI50 [38]: 1.92 µM (inactive) | GI50 [39]: 4.5 µM (inactive) | GI50 [40]: 4.66 µM (inactive) | GI50 [41]: 4.49 µM (inactive) | GI50 [43]: 4.15 µM (inactive) | GI50 [44]: 3.06 µM (inactive) | GI50 [45]: 5.62 µM (inactive) | GI50 [46]: 6.38 µM (inactive) | GI50 [48]: 6.65 µM (inactive) | GI50 [59]: 0.162 µM (active) | GI50 [49]: 0.45 µM (active) | GI50 [50]: 1.9 µM (inactive) | GI50 [51]: 7.26 µM (inactive) | GI50 [52]: 8.28 µM (inactive) | GI50 [53]: 4.95 µM (inactive) | GI50 [54]: 9.66 µM (inactive) | GI50 [56]: 2.19 µM (inactive)

O=C(O)c1ccc(Nc2nc3ccccc3nc2-c2cccs2)cc1
GI50 [1]: 71.9 µM (inactive) | GI50 [2]: 47 µM (inactive) | GI50 [3]: 44.2 µM (inactive) | GI50 [4]: 98.9 µM (inactive) | GI50 [5]: 32.1 µM (inactive) | GI50 [6]: 63.5 µM (inactive) | GI50 [7]: > 100 µM (inactive) | GI50 [8]: > 100 µM (inactive) | GI50 [9]: > 100 µM (inactive) | GI50 [10]: 92.5 µM (inactive) | GI50 [57]: > 100 µM (inactive) | GI50 [11]: 94 µM (inactive) | GI50 [12]: 68.7 µM | GI50 [13]: > 100 µM (inactive) | GI50 [14]: > 100 µM (inactive) | GI50 [15]: 68.2 µM (inactive) | GI50 [16]: 66.4 µM (inactive) | GI50 [17]: 50.7 µM (inactive) | GI50 [18]: 73.5 µM (inactive) | GI50 [19]: 45.5 µM (inactive) | GI50 [20]: 64.1 µM (inactive) | GI50 [21]: 35.1 µM (inactive) | GI50 [23]: > 100 µM (inactive) | GI50 [24]: > 100 µM (inactive) | GI50 [25]: > 100 µM (inactive) | GI50 [26]: > 100 µM (inactive) | GI50 [27]: 60.3 µM (inactive) | GI50 [28]: > 100 µM (inactive) | GI50 [29]: > 100 µM (inactive) | GI50 [30]: 71 µM (inactive) | GI50 [31]: 91.4 µM (inactive) | GI50 [32]: 39.1 µM (inactive) | GI50 [33]: > 100 µM (inactive) | GI50 [34]: 41.8 µM (inactive) | GI50 [35]: > 100 µM (inactive) | GI50 [36]: 54.2 µM (inactive) | GI50 [37]: > 100 µM (inactive) | GI50 [38]: 68.1 µM (inactive) | GI50 [39]: 39.4 µM (inactive) | GI50 [40]: 82.2 µM (inactive) | GI50 [41]: > 100 µM (inactive) | GI50 [42]: > 100 µM (inactive) | GI50 [43]: > 100 µM (inactive) | GI50 [45]: > 100 µM (inactive) | GI50 [46]: > 100 µM (inactive) | GI50 [47]: > 100 µM (inactive) | GI50 [59]: 66.1 µM (inactive) | GI50 [49]: 65.9 µM (inactive) | GI50 [50]: > 100 µM (inactive) | GI50 [51]: 47 µM (inactive) | GI50 [52]: > 100 µM (inactive) | GI50 [53]: 95.9 µM (inactive) | GI50 [54]: > 100 µM (inactive) | GI50 [55]: 65.5 µM (inactive) | GI50 [56]: 63.5 µM (inactive)
